# Target: T1, human sEH (Homo sapiens, UniProt P34913)
# T1 construct: made in house; host or cells: baculovirus expression system
# T1 sequence (P34913 1-555): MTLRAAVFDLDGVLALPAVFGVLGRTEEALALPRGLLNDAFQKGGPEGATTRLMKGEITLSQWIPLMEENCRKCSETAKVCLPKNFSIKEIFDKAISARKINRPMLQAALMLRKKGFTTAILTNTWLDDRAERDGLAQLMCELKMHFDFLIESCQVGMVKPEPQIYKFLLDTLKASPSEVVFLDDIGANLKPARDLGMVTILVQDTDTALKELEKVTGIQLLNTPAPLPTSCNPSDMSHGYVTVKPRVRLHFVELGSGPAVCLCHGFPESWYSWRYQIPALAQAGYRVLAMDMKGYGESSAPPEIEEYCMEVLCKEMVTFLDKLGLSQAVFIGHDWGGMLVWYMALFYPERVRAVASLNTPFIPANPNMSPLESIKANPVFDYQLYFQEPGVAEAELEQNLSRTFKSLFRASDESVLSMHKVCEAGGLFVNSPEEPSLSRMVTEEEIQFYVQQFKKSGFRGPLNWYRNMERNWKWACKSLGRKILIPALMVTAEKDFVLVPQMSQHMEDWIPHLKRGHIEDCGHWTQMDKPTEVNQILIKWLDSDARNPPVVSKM
# Assay: Inhibition of recombinant human sEH, IC50 assay with 4-nitrophenyl-trans-2,3-epoxy-3-phenylpropyl carbonate as substrate
# Assay type: biochemical
# Conditions: not given
# Procedure: (§1) Assays were performed in triplicate. […] The curve was generated from at least three separate runs, each in triplicate, to obtain the standard deviation (SD) given in Table 1 thru Table 4.
row,SMILES,IC50
1,COc1ccc(NC(=O)CC2CCCCC2)cc1 [Compound 965],6 ± 0.01 µM

# Same assay, conditions: Table 7; established protocols; read-out: IC50 (μM) Human sEH
row,IC50,SMILES
1,0.1 ± 0.01 µM,O=C(NCCCCCOCCOCCOCCO)NC12CC3CC(CC(C3)C1)C2 [Compound 975]
2,0.13 ± 0.01 µM,CCCC(C)COCCOCCOCCCCCNC(=O)NC12CC3CC(CC(C3)C1)C2 (stereo not shown) [Compound 1003]

# Same assay, conditions: Table 8; established protocols; read-out: IC50 (μM) Human sEH
row,IC50,SMILES
1,5 ± 0.3 µM,CCCCCCCCCCCC(=O)NC12CC3CC(CC(C3)C1)C2 [Compound 989]

# Same assay, conditions: Table 9; established protocols; read-out: IC50 (μM) Human sEH
row,IC50,SMILES
1,0.1 ± 0.01 µM,C=CCOC1CCC(NC(=O)NC23CC4CC(CC(C4)C2)C3)CC1 (stereo not shown) [Compound 982]
2,0.1 ± 0.01 µM,CC(C)=CCOC1CCC(NC(=O)NC23CC4CC(CC(C4)C2)C3)CC1 (stereo not shown) [Compound 983]
3,0.1 ± 0.01 µM,CC(C)=CCC/C(C)=C/COC1CCC(NC(=O)NC23CC4CC(CC(C4)C2)C3)CC1 (stereo not shown) [Compound 984]
4,0.1 ± 0.01 µM,O=C(NC1CCC(OCCOCCOCC(F)(F)F)CC1)NC12CC3CC(CC(C3)C1)C2 (stereo not shown) [Compound 985]

# Same assay, conditions: Tables 17a and b; read-out: IC50 (μM) Human sEH
row,SMILES,IC50
1,O=C(CC1CCCCC1)Nc1ccccc1 [Compound 964],16 ± 0.01 µM
2,O=C(CC1CCCCC1)Nc1cccc(Cl)c1 [Compound 966],2.1 ± 0.01 µM
3,O=C(Cc1ccccc1)NC1CCCCC1 [Compound 968],14 ± 0.01 µM
4,O=C(Cc1cccc(Cl)c1)NC1CCCCC1 [Compound 969],38 ± 0.01 µM
5,COc1ccc(CC(=O)NC2CCCCC2)cc1 [Compound 970],4.8 ± 0.01 µM
6,O=C(CCCc1ccccc1)NC1CCCCC1 [Compound 971],1.4 ± 0.01 µM
7,CCCCC(CO)NC(=O)Nc1cccc(Cl)c1 (stereo not shown) [Compound 978],1.9 ± 0.01 µM
8,CCCCC1COC(Nc2cccc(Cl)c2)=N1 (stereo not shown) [Compound 980],60 ± 0.01 µM
9,CCCCCOC(=O)CCCCC(=O)Nc1cccc(Cl)c1 [Compound 987],5.9 ± 0.01 µM
10,CCCCCOC(=O)CCCNC(=O)Cc1cccc(Cl)c1 [Compound 988],5 ± 0.01 µM
11,O=C(CCCCc1ccccc1)NC1CCCCC1 [Compound 992],1.6 ± 0.01 µM
12,O=C(CC1CCCCC1)NCCc1ccccc1 [Compound 993],4 ± 0.01 µM
13,CCCCCNC(=O)NC(CO)c1ccccc1 (stereo not shown) [Compound 995],22.1 ± 0.01 µM
14,O=C(NCCCCCCCCCCCn1ccnc1)NC12CC3CC(CC(C3)C1)C2 [Compound 997],63 ± 0.01 µM
15,O=C(Nc1ccc2ccccc2c1)NC1CCCCC1 [Compound 998],3.7 ± 0.01 µM

# Next, values leading:
row,IC50,SMILES
1,0.12 ± 0.01 µM,O=C(CC12CC3CC(CC(C3)C1)C2)NCCCc1ccccc1 [Compound 967]
2,0.1 ± 0.01 µM,CC(C)OCCOCCOCCCCCNC(=O)NC12CC3CC(CC(C3)C1)C2 [Compound 974]
3,0.1 ± 0.01 µM,CC(O)c1cccc2c(S(=O)(=O)NCCOCCOCCCCCNC(=O)NC34CC5CC(CC(C5)C3)C4)cccc12 (stereo not shown) [Compound 976]
4,0.25 ± 0.01 µM,CCCCC(CO)NC(=O)NC1CCCCC1 (stereo not shown) [Compound 977]
5,0.29 ± 0.01 µM,CC(C)c1cccc2c(S(=O)(=O)NCCCOCCCCCNC(=O)NC34CC5CC(CC(C5)C3)C4)cccc12 [Compound 986]
6,1.1 ± 0.01 µM,O=C(CC1CCCCC1)NCCCc1ccccc1 [Compound 990]
7,0.1 ± 0.01 µM,CCCCC(O)CCCCNC(=O)NC12CC3CC(CC(C3)C1)C2 (stereo not shown) [Compound 994]
8,0.24 ± 0.01 µM,CCCCCCCCC(NC(=O)CCCCCCCCCCCNC(=O)NC12CC3CC(CC(C3)C1)C2)C(=O)O (stereo not shown) [Compound 1001]
9,0.13 ± 0.01 µM,CCCC(C)COCCOCCOCCCCCNC(=O)NC12CC3CC(CC(C3)C1)C2 (stereo not shown) [Compound 1003]

# Target: T2, mouse sEH (Mus musculus, UniProt P34914)
# T2 construct: made in house; host or cells: baculovirus expression system
# T2 sequence (P34914 1-554): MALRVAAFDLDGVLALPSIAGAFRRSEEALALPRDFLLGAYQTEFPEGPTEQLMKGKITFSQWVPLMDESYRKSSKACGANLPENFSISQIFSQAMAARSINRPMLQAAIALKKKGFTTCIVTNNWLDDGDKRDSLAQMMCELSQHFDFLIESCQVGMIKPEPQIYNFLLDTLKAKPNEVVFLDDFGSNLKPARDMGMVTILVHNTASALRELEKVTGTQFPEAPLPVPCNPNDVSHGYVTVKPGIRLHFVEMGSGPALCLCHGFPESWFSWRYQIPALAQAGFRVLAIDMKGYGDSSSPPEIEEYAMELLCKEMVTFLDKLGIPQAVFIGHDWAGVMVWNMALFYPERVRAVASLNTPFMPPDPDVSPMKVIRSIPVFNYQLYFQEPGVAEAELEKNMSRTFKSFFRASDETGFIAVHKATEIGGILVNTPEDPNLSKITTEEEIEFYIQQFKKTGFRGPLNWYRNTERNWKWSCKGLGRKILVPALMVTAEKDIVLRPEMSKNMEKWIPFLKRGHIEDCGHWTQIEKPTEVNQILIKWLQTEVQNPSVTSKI
# Assay: Inhibition of recombinant mouse sEH, IC50 assay with 4-nitrophenyl-trans-2,3-epoxy-3-phenylpropyl carbonate as substrate
# Assay type: biochemical
# Conditions: Table 7; established protocols; read-out: IC50 (μM) Mouse sEH
# Procedure: as §1
row,IC50,SMILES
1,0.05 ± 0.01 µM,O=C(NCCCCCOCCOCCOCCO)NC12CC3CC(CC(C3)C1)C2 [Compound 975]
2,0.05 ± 0.01 µM,CCCC(C)COCCOCCOCCCCCNC(=O)NC12CC3CC(CC(C3)C1)C2 (stereo not shown) [Compound 1003]

# Same assay, conditions: Table 8; established protocols; read-out: IC50 (μM) Mouse sEH
row,IC50,SMILES
1,0.05 ± 0.01 µM,CCCCCCCCCCCC(=O)NC12CC3CC(CC(C3)C1)C2 [Compound 989]

# Same assay, conditions: Table 9; established protocols; read-out: IC50 (μM) Mouse sEH
row,IC50,SMILES
1,0.05 ± 0.01 µM,C=CCOC1CCC(NC(=O)NC23CC4CC(CC(C4)C2)C3)CC1 (stereo not shown) [Compound 982]
2,0.05 ± 0.01 µM,CC(C)=CCOC1CCC(NC(=O)NC23CC4CC(CC(C4)C2)C3)CC1 (stereo not shown) [Compound 983]
3,0.05 ± 0.01 µM,CC(C)=CCC/C(C)=C/COC1CCC(NC(=O)NC23CC4CC(CC(C4)C2)C3)CC1 (stereo not shown) [Compound 984]
4,0.05 ± 0.01 µM,O=C(NC1CCC(OCCOCCOCC(F)(F)F)CC1)NC12CC3CC(CC(C3)C1)C2 (stereo not shown) [Compound 985]

# Same assay, conditions: Tables 17a and b; read-out: IC50 (μM) Mouse sEH
row,SMILES,IC50
1,O=C(CC1CCCCC1)Nc1ccccc1 [Compound 964],3.7 ± 0.01 µM
2,COc1ccc(NC(=O)CC2CCCCC2)cc1 [Compound 965],0.15 ± 0.01 µM
3,O=C(CC1CCCCC1)Nc1cccc(Cl)c1 [Compound 966],0.58 ± 0.01 µM
4,O=C(Cc1ccccc1)NC1CCCCC1 [Compound 968],2.4 ± 0.01 µM
5,O=C(Cc1cccc(Cl)c1)NC1CCCCC1 [Compound 969],0.56 ± 0.01 µM
6,COc1ccc(CC(=O)NC2CCCCC2)cc1 [Compound 970],1.4 ± 0.01 µM
7,O=C(CCCc1ccccc1)NC1CCCCC1 [Compound 971],0.11 ± 0.01 µM
8,CCCCC(CO)NC(=O)Nc1cccc(Cl)c1 (stereo not shown) [Compound 978],8.4 ± 0.01 µM
9,CCCCC1COC(Nc2cccc(Cl)c2)=N1 (stereo not shown) [Compound 980],49 ± 0.01 µM
10,CCCCCOC(=O)CCCCC(=O)Nc1cccc(Cl)c1 [Compound 987],1.7 ± 0.01 µM
11,CCCCCOC(=O)CCCNC(=O)Cc1cccc(Cl)c1 [Compound 988],2.9 ± 0.01 µM
12,O=C(CCCCc1ccccc1)NC1CCCCC1 [Compound 992],0.05 ± 0.01 µM
13,O=C(CC1CCCCC1)NCCc1ccccc1 [Compound 993],2.1 ± 0.01 µM
14,CCCCCNC(=O)NC(CO)c1ccccc1 (stereo not shown) [Compound 995],11 ± 0.01 µM
15,O=C(NCCCCCCCCCCCn1ccnc1)NC12CC3CC(CC(C3)C1)C2 [Compound 997],2.3 ± 0.01 µM
16,O=C(Nc1ccc2ccccc2c1)NC1CCCCC1 [Compound 998],0.1 ± 0.01 µM

# Further lines, results first:
row,IC50,SMILES
1,0.07 ± 0.01 µM,O=C(CC12CC3CC(CC(C3)C1)C2)NCCCc1ccccc1 [Compound 967]
2,0.05 ± 0.01 µM,CC(C)OCCOCCOCCCCCNC(=O)NC12CC3CC(CC(C3)C1)C2 [Compound 974]
3,0.05 ± 0.01 µM,CC(O)c1cccc2c(S(=O)(=O)NCCOCCOCCCCCNC(=O)NC34CC5CC(CC(C5)C3)C4)cccc12 (stereo not shown) [Compound 976]
4,0.1 ± 0.01 µM,CCCCC(CO)NC(=O)NC1CCCCC1 (stereo not shown) [Compound 977]
5,0.05 ± 0.01 µM,CC(C)c1cccc2c(S(=O)(=O)NCCCOCCCCCNC(=O)NC34CC5CC(CC(C5)C3)C4)cccc12 [Compound 986]
6,0.73 ± 0.01 µM,O=C(CC1CCCCC1)NCCCc1ccccc1 [Compound 990]
7,0.05 ± 0.01 µM,CCCCC(O)CCCCNC(=O)NC12CC3CC(CC(C3)C1)C2 (stereo not shown) [Compound 994]
8,0.05 ± 0.01 µM,CCCCCCCCC(NC(=O)CCCCCCCCCCCNC(=O)NC12CC3CC(CC(C3)C1)C2)C(=O)O (stereo not shown) [Compound 1001]
9,0.05 ± 0.01 µM,CCCC(C)COCCOCCOCCCCCNC(=O)NC12CC3CC(CC(C3)C1)C2 (stereo not shown) [Compound 1003]

# Source: patent US20050164951A1, “Inhibitors for the soluble epoxide hydrolase” (The Regents of the University of California, priority 2003, published 2005)
